These results are taken from patent US6809096B1, “Phenanthroline-7-one derivatives and their therapeutic uses” (Laboratoire L. Lafon, priority 1999, dated 2004).

Tested on in the first data set: not given
Test: not given
Conditions: not given
Take `COc1ccc2c(n1)C(=O)c1ncc(OC)c3ccnc-2c13` [CRL 8479, 4,9-Dimethoxy-7H-pyrido[4,3,2-de][1,7]phenanthroline-7-one]: the melting point (in general, the temperature, or range, at which the solid turns liquid) was greater than 260 °C. Consider `O=C1c2ncccc2-c2nccc3c(Cl)cnc1c23` [CRL 8480, 4-Chloro-7H-pyrido[4,3,2-de][1,7]phenanthroline-7-one], for which the melting point was greater than 260 °C. In turn, `CN(C)c1cnc2c3c(nccc13)-c1cccnc1C2=O` [CRL 8481, 4-Dimethylamino-7H-pyrido[4,3,2-de][1,7]phenanthroline-7-one] returned a melting point greater than 260 °C. In turn, `CCOC(=O)c1cnc2c(c1)-c1nccc3ccnc(c13)C2=O` [CRL 8482, 10-Ethoxycarbonyl-7H-pyrido[4,3,2-de][1,7]phenanthroline-7-one] returned a melting point of 246 °C. Consider `O=C1c2nc(O)ccc2-c2nccc3ccnc1c23` [CRL 8483, 9-Hydroxy-7H-pyrido[4,3,2-de][1,7]phenanthroline-7-one], for which the melting point is greater than 260 °C.

`COc1ccc2c(n1)C(=O)c1nccc3ccnc-2c13` [CRL 8484, 9-Methoxy-7H-pyrido[4,3,2-de][1,7]phenanthroline-7-one] displayed a melting point greater than 260 °C.

The compound `COc1cc(OC)c2c(n1)C(=O)c1nccc3ccnc-2c13` [CRL 8485, 9,11-Dimethoxy-7H-pyrido[4,3,2-de][1,7]phenanthroline-7-one] came in with a melting point greater than 260 °C. On to `CN(C)c1cc(Cl)nc2c1-c1nccc3ccnc(c13)C2=O` [CRL 8486, 9-Chloro-11-dimethylamino-7H-pyrido[4,3,2-de][1,7]phenanthroline-7-one], for which the melting point is 246 °C. `I.I.O=C1c2ncccc2-c2nccc3c(O)cnc1c23` [CRL 8487, 4-Hydroxy-7H-pyrido[4,3,2-de][1,7]phenanthroline-7-one dihydroiodide]: the melting point was greater than 260 °C.

The subject of the next data set is 12 human cancer cell lines (U-373MG, U-87MG, SW1088, A549, A-427, HCT-15, LoVo, T-47D, MCF7, J82, T24, PC-3). Put plainly: Cytotoxic activity on tumour cell lines in culture (MTT test). Type of data set: cell-based. The following applies: Homo sapiens, mean IC50 calculated from the individual cytotoxic activities on each of the 12 tumour lines, 72 hours incubation. On the procedure:
1—Cytotoxic Activity on Tumour Cell Lines in Culture (MTT Test)
The influence of the compounds of formula (I) and of (Ia) on tumour cells was evaluated using the MTT calorimetric test (T. Mosman, J. Immunol. Methods, 1983; 65: 55-63, J. Carmichael et al., Cancer Res. 1987; 47: 936-942).
The principle of the MTT test is based on the mitochondrial reduction by metabolically active alive cells of the yellow-coloured product MTT (3-(4,5-dimethylthiazol-2-yl)-2,5-diphenyltetrazolium bromide) to a blue-coloured product, formazan. The amount of formazan thus obtained is directly proportional to the amount of live cells present in the culture well or wells. This amount of formazan is measured by spectrophotometry.
The cell lines are maintained in monolayer culture at 37° C. in stoppered culture dishes containing 25 MM HEPES MEM (Minimum Essential Medium) base medium. This medium is well suited to the growth of a range of varied diploid or primary mammalian cells. This medium is subsequently supplemented: […]
with an amount of 5% of FCS (Foetal Calf Serum) decomplemented at 56° C. for 1 hour, with 0.6 mg/ml of L-glutamine, with 200 IU/ml of penicillin, with 200 μg/ml of streptomycin, with 0.1 mg/ml of gentamicin.
The 12 human cancer cell lines which were used were obtained from the American Type Culture Collection (ATCC, Rockville, Md., USA). These 12 cell lines are:
U-373MG (ATCC code: HTB-17) and U-87MG (ATCC code: HTB-14), which are two glioblastomas, SW1088 (ATCC code: HTB-12) which is an astrocytoma, A549 (ATCC code: CCL-185) and A-427 (ATCC code: HTB-53), which are two non-small-cell lung cancers, HCT-15 (ATCC code: CCL-225) and LoVo (ATCC code: CCL-229), which are two colorectal cancers, T-47D (ATCC code: HTB-133) and MCF7 (ATCC code: HTB-22), which are two breast cancers, J82 (ATCC code: HTB-1) and T24 (ATCC code: […]), which are two bladder cancers, PC-3 (ATCC code: CRL-1435), which is a prostate cancer.
Experimentally: 100 μl of a cell suspension comprising 20 000 to 50 000 (depending on the cell type used) cells/ml of culture medium are inoculated in flat-bottomed 96-well multi-well plates and are incubated at 37° C. under an atmosphere comprising 5% of CO2 and 70% humidity. After incubating for 24 hours, the culture medium is replaced with 100 μl of fresh medium comprising either the various test compounds at concentrations varying from 10^−5 to 10^−10 M of the solvent used to dissolve the -test products (control condition). After incubating for 72 hours under the above conditions, the culture medium is replaced with 100 μl of a yellowish solution of MTT dissolved, in a proportion of 1 mg/ml, in RPMI 1640. The microplates are reincubated for 3 hours at 37° C. and then centrifuged for 10 minutes at 400 g. The yellowish MTT solution is removed and the blue formazan crystals formed at the cellular level are dissolved in 100 μl of DMSO. The microplates are subsequently agitated for 5 minutes. The intensity of the resulting blue coloration, and thus of the conversion of the yellow MTT product into blue formazan by the cells which are still alive at the end of the experiment, is quantified by spectrophotometry using a device of DYNATECH IMOASSAY SYSTEM type at wavelengths of 570 nm and 630 nm corresponding respectively to the maximum absorption wavelengths of formazan and to the background noise. Software built into the spectrophotometer calculates the mean optical density values and the standard deviation (Std. Dev.) and standard error of the mean (SEM) values.
The inhibitory activity on the cell growth of the compounds of formula (I) and (Ia) on the various tumour cell lines was measured in comparison with that of the natural product.
`COc1ccnc2c1C(=O)c1nccc3ccnc-2c13` [CRL 8363, 8-Methoxy-7H-pyrido[4,3,2-de][1,10]phenanthroline-7-one]: the IC50 (as a rule, the midpoint of a concentration-inhibition curve) was 500 nM.

Consider `COc1ccnc2c1-c1nccc3ccnc(c13)C2=O` [CRL 8364, 11-methoxy-7H-pyrido[4,3,2-de][1,7]phenanthroline-7-one], for which the half-inhibitory concentration (IC50) was 270 nM. On to `CN(C)c1ccnc2c1-c1nccc3ccnc(c13)C2=O` [CRL 8367, 11-(Dimethylamino)-7H-pyrido[4,3,2-de][1,7]phenanthroline-7-one], for which the IC50 is 1650 nM. Turning to `O=C1c2nccc(O)c2-c2nccc3ccnc1c23` [CRL 8388, 11-Hydroxy-7H-pyrido[4,3,2-de][1,7]phenanthroline-7-one], the IC50 was 6200 nM. `O=C1c2c(Cl)ccnc2-c2nccc3ccnc1c23` [CRL 8396, 8-Chloro-7H-pyrido[4,3,2-de][1,10]phenanthroline-7-one]: the IC50 was 600 nM. For the compound `COc1cnc2c3c(nccc13)-c1ncccc1C2=O` [CRL 8400, 4-Methoxy-7H-pyrido[4,3,2-de][1,10]phenanthroline-7-one], the IC50 is 380 nM. On the same count and under the same terms, with `COc1cnc2c3c(nccc13)-c1cccnc1C2=O` [CRL 8401, 4-Methoxy-7H-pyrido[4,3,2-de][1,7]phenanthroline-7-one] the figure was 53 nM. `COc1ccnc2c1-c1nccc3c(OC)cnc(c13)C2=O` [CRL 8440, 4,11-Dimethoxy-7H-pyrido[4,3,2-de][1,7]phenanthroline-7-one]: the half-inhibitory concentration (IC50) was 10 nM. On to `COc1cnc2c3c(nccc13)-c1c(N(C)C)ccnc1C2=O` [CRL 8441, 4-Methoxy-11-dimethylamino-7H-pyrido[4,3,2-de][1,7]phenanthroline-7-one], for which the IC50 was 5000 nM.

The test system of the next data set is leukaemia cell model.
Test: not given
The following applies: cytotoxicity; cited from earlier work.
2-bromoleptoclinidone: the ED50 is 0.4 µg/mL.

Tested on in another data set: not listed separately
As to the kind of experiment: Determination of the maximum tolerated dose (MTD). The following applies: mouse, in vivo, ip; B6D2F1/Jico mice, single intraperitoneal administration, survival over 14 days, doses 2.5 to 160 mg/kg; read-out: DMT (mg/kg) (Maximum Tolerated Doses). On the procedure:
2—Determination of the Maximum Tolerated Dose (MTD)
The evaluation of the maximum tolerated dose was carried out on B6D2F1/Jico mice aged from 4 to 6 weeks. The compounds were administered intraperitoneally at increasing doses ranging from 2.5 to 160 mg/kg. The value of the MTD (expressed in mg/kg) is determined from the observation of the survival rates of the animals over a period of 14 days after a single administration of the product under consideration. The change in the weight of the animals is also monitored over this period. When that the value of the MTD is greater than 160 mg/kg, the value of the MTD is categorized as 160 mg/kg by default.
As to `COc1ccnc2c1C(=O)c1nccc3ccnc-2c13` [CRL 8363, 8-Methoxy-7H-pyrido[4,3,2-de][1,10]phenanthroline-7-one], the MTD at 14 days turned out to be 10 mg/kg. `COc1ccnc2c1-c1nccc3ccnc(c13)C2=O` [CRL 8364, 11-methoxy-7H-pyrido[4,3,2-de][1,7]phenanthroline-7-one]: the MTD at 14 days was determined as 5 mg/kg.

For the compound `CN(C)c1ccnc2c1-c1nccc3ccnc(c13)C2=O` [CRL 8367, 11-(Dimethylamino)-7H-pyrido[4,3,2-de][1,7]phenanthroline-7-one], the MTD at 14 days is 10 mg/kg.

Regarding `O=C1c2nccc(O)c2-c2nccc3ccnc1c23` [CRL 8388, 11-Hydroxy-7H-pyrido[4,3,2-de][1,7]phenanthroline-7-one], the MTD at 14 days came out at 10 mg/kg. As to `O=C1c2c(Cl)ccnc2-c2nccc3ccnc1c23` [CRL 8396, 8-Chloro-7H-pyrido[4,3,2-de][1,10]phenanthroline-7-one], the MTD at 14 days was determined as 20 mg/kg. With `COc1cnc2c3c(nccc13)-c1ncccc1C2=O` [CRL 8400, 4-Methoxy-7H-pyrido[4,3,2-de][1,10]phenanthroline-7-one], the MTD at 14 days was greater than 160 mg/kg. On to `COc1cnc2c3c(nccc13)-c1cccnc1C2=O` [CRL 8401, 4-Methoxy-7H-pyrido[4,3,2-de][1,7]phenanthroline-7-one], for which the MTD at 14 days was greater than 160 mg/kg.

Take `COc1ccnc2c1-c1nccc3c(OC)cnc(c13)C2=O` [CRL 8440, 4,11-Dimethoxy-7H-pyrido[4,3,2-de][1,7]phenanthroline-7-one]: the MTD at 14 days stood at 20 mg/kg. Take `COc1cnc2c3c(nccc13)-c1c(N(C)C)ccnc1C2=O` [CRL 8441, 4-Methoxy-11-dimethylamino-7H-pyrido[4,3,2-de][1,7]phenanthroline-7-one]: the MTD at 14 days was greater than 160 mg/kg.
